{"source": "paper PMC4747102", "about": "(European journal of medicinal chemistry, 2015)", "key": {"[1]": {"tested_on": "MCF-7 (ER+ breast cancer) cells", "assay": "cells", "format": "cell-based, human"}, "[2]": {"tested_on": "MDA-MB-231 (triple negative breast cancer) cells", "format": "cell-based, human"}}, "data": [{"molecule": "O=C1c2ccccc2C(=O)c2c(O)c(C(c3ccc(F)cc3)N(CCCl)CCCl)cc(O)c21", "note": "(stereo not shown) [5k, 2-((Bis(2-chloroethyl)amino)(4-fluorophenyl)methyl)-1,4-dihydroxyanthracene-9,10-dione]", "values": [{"measurement": "times more potent than chlorambucil", "setting": "[1]", "result": "over 100 times"}]}, {"molecule": "COc1cccc2c1C(=O)c1c(O)c3c(c(O)c1C2=O)C[C@@](O)(C(=O)CO)C[C@@H]3O[C@H]1C[C@H](N)[C@H](O)[C@H](C)O1", "note": "[Doxorubicin, reference compound]", "values": [{"measurement": "IC50", "setting": "[1]; Homo sapiens, MCF7, 120 h, read-out: IC50 MCF-7", "result": 0.294, "unit": "nM"}]}, {"molecule": "CC(C)CC(c1cc(O)c2c(c1O)C(=O)c1ccccc1C2=O)N(CCCl)CCCl", "note": "(stereo not shown) [5f, 2-(1-(Bis(2-chloroethyl)amino)-3-methylbutyl)-1,4-dihydroxyanthracene-9,10-dione]", "values": [{"measurement": "fold stronger than compound 5b", "setting": "[2]", "result": "approximately 70 fold"}]}, {"molecule": "O=C1c2ccccc2C(=O)c2c(O)c(C(c3ccccc3F)N(CCCl)CCCl)cc(O)c21", "note": "(stereo not shown) [5i, 2-((Bis(2-chloroethyl)amino) (2-fluorophenyl)methyl)-1,4-dihydroxyanthracene-9,10-dione]", "values": [{"measurement": "fold increase in inhibitory activity compared to chlorambucil", "setting": "[2]", "result": "ca. 900 fold"}]}]}
